In PubChem BioAssay (NCI):
Where “and” joins values, the source holds several entries; their conditions need not be identical. Equal values may be shown once.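 Assay format: 96-well plates, 48-hour exposure. The concentration for 50% growth inhibition is given as GI50. Definition used: TGI = concentration required for complete inhibition of growth.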

Tests used:
Experiment in all cases: NCI tumour cell line growth inhibition, 48 h
HT29 colon = tested on: HT29 colon
PC-3 prostate = tested on: PC-3 prostate
SW-620 colon = tested on: SW-620 colon
SF-268 CNS = tested on: SF-268 CNS
NCI-H522 lung = tested on: NCI-H522 lung
SF-295 CNS = tested on: SF-295 CNS
KM12 colon = tested on: KM12 colon
U251 CNS = tested on: U251 CNS

SMILES | GI50 (HT29 colon) | TGI (HT29 colon) | GI50 (PC-3 prostate) | TGI (PC-3 prostate) | GI50 (SW-620 colon) | TGI (SW-620 colon) | GI50 (SF-268 CNS) | TGI (SF-268 CNS) | GI50 (NCI-H522 lung) | TGI (NCI-H522 lung) | GI50 (SF-295 CNS) | TGI (SF-295 CNS) | GI50 (KM12 colon) | TGI (KM12 colon) | GI50 (U251 CNS) | TGI (U251 CNS)
C/C(=C\C(=O)O[C@H]1[C@@H]2[C@H](C)CC[C@H]2[C@]2(C)O[C@@]1(C1CCCCC1)C[C@H]2OC(=O)CO)c1ccccc1 | 6.47 µM | 13 µM | 5.05 µM | 10.9 µM | 6.78 µM | 13.3 µM | 0.2 µM | 8.47 µM | 6.55 µM | 13.1 µM | 6.08 µM | 11.7 µM | 6.44 µM | 13 µM | 6020 nM | 11.5 µM
O=C(CCCc1ccc(N(CCCl)CCCl)cc1)NCc1ccccc1 | 8.21 µM | 52 µM | 12.1 µM | 73.9 µM | 6.4 µM | 73.4 µM | 5.69 µM | 57.8 µM | 6.42 µM | 24.5 µM | 3.23 µM | 28.6 µM | 12.3 µM | 52.1 µM | 6600 nM | 43.4 µM
O=c1c2ccccc2nc(-c2cccc([N+](=O)[O-])c2)n1O |  | > 100 µM |  | 98.7 µM |  | > 100 µM |  | > 100 µM |  | > 88.8 µM |  | > 100 µM |  | > 100 µM |  | > 100 µM
Cc1ccc(NC(=O)c2ccc(CN3CCN(C)CC3)cc2)cc1Nc1nc(-c2cccnc2)cs1 | 3.5 µM and 3.23 µM | 13.7 µM and > 10 µM | 5.94 µM and 4.99 µM | 19.7 µM and > 10 µM | 5.68 µM and 4.58 µM | 19.5 µM and > 10 µM | 12.6 µM and > 10 µM | 26.7 µM and > 10 µM | 10.5 µM and 3.55 µM | 23.4 µM and > 10 µM | 3.3 µM and 1.92 µM | 13.8 µM and 5.48 µM | 9.85 µM and 6.72 µM | 23.2 µM and > 10 µM | 3740 nM and 2920 nM | 14 µM and > 10 µM
O=C1C=C(Nc2ccccc2)c2ccccc2C1=O | 2.35 µM | 5.17 µM |  |  | 2.1 µM | 5.33 µM | 2.67 µM | 8.71 µM | 1.67 µM | 3.36 µM | 1.9 µM | 3.5 µM | 2.94 µM | 9.17 µM | 1800 nM | 4.6 µM
CCCCn1c(=O)[nH]c(N)c([C@@H]2c3c([nH]c(=O)n(CCCC)c3=O)Oc3ccc4ccccc4c32)c1=O | 2.46 µM | 4.73 µM | 1.65 µM | 3.23 µM | 0.37 µM | 1.18 µM | 1.76 µM | 3.58 µM | 2.57 µM | 6.36 µM | 5.83 µM | 19.2 µM | 1.69 µM | 3.26 µM | 1730 nM | 3.32 µM
CCOc1ccc(N(C)c2ccc(/C=C/C3=[N+](C)c4ccccc4C3(C)C)cc2)cc1 | 0.137 µM | 1.06 µM | 0.0759 µM | 0.793 µM | 0.175 µM | 1.19 µM | 0.933 µM | 2.65 µM | 0.167 µM | 0.78 µM | 0.47 µM | 3.89 µM | 0.219 µM | 1.05 µM | 122 nM | 1.17 µM
O=C(/C=C\c1ccc(O)c(O)c1)c1ccccc1O | 18.4 µM | 47.1 µM | 13.4 µM | 89.8 µM | 11.3 µM | 26.4 µM | 12.1 µM | 59 µM | 0.214 µM | 0.809 µM | 17.7 µM | 54.4 µM | 11.8 µM | 27.6 µM | 7950 nM | 33.1 µM
O=C1NC(=O)C(c2c[nH]c3ccccc23)=C1c1c[nH]c2ccccc12 | 11.2 µM | > 25 µM | 10.2 µM | > 25 µM | 13.3 µM | > 25 µM | 16.3 µM | > 25 µM | 8.11 µM | > 25 µM | 13.3 µM | > 25 µM | 9.3 µM | > 25 µM | 10200 nM | > 25 µM
COc1ccc(-c2csc3c2-n2cccc2C3=O)cc1 | 0.00571 µM |  | 0.0317 µM | > 52.1 µM | 0.0056 µM | > 100 µM | 0.0434 µM | > 100 µM | 0.00234 µM and 0.0218 µM | 0.00998 µM and 0.0802 µM | 0.0476 µM | > 75.5 µM | 0.0133 µM |  | 8.87 nM | > 100 µM
C=CCc1cccc(C=O)c1O | 67.9 µM | > 100 µM | 5.86 µM | > 100 µM | 50.6 µM | > 100 µM | 25.2 µM | > 100 µM | > 100 µM | > 100 µM | > 100 µM | > 100 µM |  |  | 6630 nM | > 100 µM
O=C(O)/C=C\C(=O)Nc1ccc2c(c1)-c1ccccc1C2 |  | > 100 µM |  | > 100 µM |  | > 100 µM |  | > 100 µM |  | > 100 µM |  | > 100 µM |  | > 100 µM |  | > 100 µM
COc1cc2cc(NCc3cccc(Cl)c3)nc(C)c2cc1OC | 0.462 µM | 11.4 µM | 3.14 µM | 23.7 µM | 1.93 µM | 12.6 µM | 2.97 µM | 23.9 µM | 1.01 µM | 10.4 µM | 0.513 µM | 16.8 µM | 2.62 µM | 15.8 µM | 2400 nM | 16 µM
Nc1c(C(=O)Nc2cccc(Cl)c2)sc2nc3c(cc12)C(=O)CCC3 | 0.338 µM | > 100 µM | 0.528 µM | > 100 µM | 0.351 µM | > 100 µM | > 45.4 µM | > 100 µM | 0.19 µM | 0.788 µM | 0.243 µM |  | 0.298 µM | > 100 µM | 599 nM | > 60.2 µM
CC1CCCCCC(=O)c2c(O)cc(O)cc2CC(=O)O1 (centres undefined) |  | > 100 µM |  | > 100 µM |  | > 100 µM |  | > 100 µM |  | > 100 µM |  | > 100 µM |  | > 100 µM |  | > 100 µM
O=c1nc2n(-c3cccc(Cl)c3)c3ccc([N+](=O)[O-])cc3cc-2c(=O)[nH]1 | 9.06 µM | > 25 µM | 6.01 µM | 15.3 µM | 2.3 µM | > 25 µM | 3.56 µM | 13.3 µM | 7.37 µM | 21.6 µM | 4.92 µM | 10.9 µM | 3.13 µM | 7.57 µM | 2630 nM | > 25 µM
COC(=O)N[C@H]1CCc2cc(OC)c(OC)c(OC)c2-c2ccc(SC)c(=O)cc21 | < 0.01 µM | > 100 µM | < 0.01 µM | > 100 µM | < 0.01 µM | > 100 µM | < 0.01 µM | > 100 µM | < 0.01 µM | > 19.9 µM | < 0.01 µM | 27.1 µM | < 0.01 µM | > 100 µM | < 10 nM | > 43.5 µM
CN1CCN(Cc2ccc(NC(=O)c3cncc(C#Cc4cnc(N)c5ncccc45)c3)cc2C(F)(F)F)CC1 | 0.157 µM | 1.48 µM | 0.584 µM | 16.9 µM | 0.247 µM | 1.36 µM | 0.511 µM | 2.95 µM | 0.396 µM | 8.49 µM | 0.55 µM | 15.5 µM | < 0.0146 µM | 4.03 µM | 509 nM | 2.18 µM
O=[N+]([O-])c1ccc(C2=NCCO2)cc1 | > 100 µM | > 100 µM | > 100 µM | > 100 µM | > 100 µM | > 100 µM | > 100 µM | > 100 µM | > 100 µM | > 100 µM | > 100 µM | > 100 µM | > 100 µM | > 100 µM | > 100000 nM | > 100 µM
Cn1cc(C2NC(=O)c3ccccc3N2)c2ccccc21 (centres undefined) |  | 0.86 µM |  | 0.408 µM |  | > 100 µM |  | > 100 µM |  | 2.56 µM |  |  |  | 26.9 µM |  | 6.27 µM
Cn1ncnc1[C@@H]1c2n[nH]c(=O)c3cc(F)cc(c23)N[C@H]1c1ccc(F)cc1 | > 100 µM | > 100 µM | > 100 µM | > 100 µM | > 100 µM | > 100 µM | > 100 µM | > 100 µM | > 100 µM | > 100 µM |  |  | > 100 µM | > 100 µM |  | 
CNC(=O)Oc1cc(C(C)C)ccc1Sc1ccc(C(C)C)cc1OC(=O)NC | 12.6 µM | 27.4 µM | 2.97 µM | 16.9 µM | 5.01 µM | 20.1 µM | 5.36 µM | 19.4 µM | 4.98 µM | 19.1 µM |  |  | 5.78 µM | 18.9 µM | 3500 nM | 15.6 µM
CC(C)=CCC/C(C)=C/CC/C(C)=C/CSC[C@H](NC(=O)CCCCCN1CCN(C)CC1)C(=O)NC1CCCCCC1 | 2.19 µM | 4.74 µM | 1.89 µM | 4.31 µM | 1.87 µM | 3.88 µM | 2.02 µM | 4.03 µM |  |  | 1.75 µM | 3.38 µM | 1.97 µM | 3.86 µM | 1730 nM | 3.19 µM
O=C([CH-]C(=O)c1ccccc1)c1ccccc1.O=C([CH-]C(=O)c1ccccc1)c1ccccc1.O=C([CH-]C(=O)c1ccccc1)c1ccccc1.[Ga+3] | 88.8 µM | > 100 µM |  |  | 65.1 µM | > 100 µM | 35.1 µM | > 100 µM | 19.3 µM | 68.6 µM | 38.7 µM | > 100 µM | 91.5 µM | > 100 µM | 23300 nM | > 100 µM
